The values that follow come from PMC7531004, “Discovery of gramicidin A analogues with altered activities by multidimensional screening of a one-bead-one-compound library” (Nature Communications, 2020).

A short description of series [1]: H+/Na+ transport assay of bead-derived peptides (one-point).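 Note: relative to parent gramicidin A activity set to 1.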 Type of series: biochemical. The note with it: bead-derived peptide solution, EYPC/EYPG LUVs. Details: key: relative activity; mean of two control wells = 1.00. The method in brief:
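One-point screen: peptide + pyranine-loaded LUVs, 30 min RT with vortexing, 96-well. Read-out is fluorescence intensity scaled as 100 × (Ix – I0)/(Imax – I0). Imax from Triton X-100, I0 from untreated vesicles, and the mean of the two control wells is set to 1.00.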

Series [2] has as its system P388 mouse leukemia cells. Conditions: 92 h. An outline of the steps:
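P388 cells at 1 × 10^4 cells/mL (final) were exposed to library peptides (stocks diluted 250-fold in RPMI1640/10% FBS) for 92 h at 37 °C, 5% CO2. Viable cells were counted by WST-1/1-methoxy PMS (4 h), absorbance 415 nm, and expressed as cell viability (%).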

For series [3], the system named is Streptococcus pyogenes SSI-9. The series is described as follows: Antibacterial activity assay of bead-derived peptides (three concentrations). Type of series: cell-based. Details: key: +++: inhibition by the 640-fold diluted peptide solution; ++: inhibition by the 160-fold diluted solution; +: inhibition by the 40-fold diluted solution; -: no inhibition. Conditions: S. pyogenes, bead-derived peptide solution, three concentrations. An outline of the steps: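 Library peptide stock applied undiluted, 4-fold and 16-fold diluted in DMSO to S. pyogenes SSI-9 (2 × 10^5 CFU) in cation-adjusted Mueller Hinton broth with 5% laked horse blood. After 18 h at 37 °C, growth judged by visible cell precipitation.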

Where a SMILES comes first, the peptide text is derived from it. [ ]: non-standard residue; d: D form. The star is where a group is joined. NHCH2CH2OH = OCCN*; For = O=C*

Consider `CC(C)C[C@@H](NC(=O)[C@H](C)NC(=O)CNC(=O)[C@@H](NC=O)C(C)C)C(=O)N[C@@H](C)C(=O)N[C@H](CC(C)C)C(=O)N[C@H](C(=O)N[C@H](CC(C)C)C(=O)N[C@@H](Cc1c[nH]c2ccccc12)C(=O)N[C@@H](C(=O)N[C@@H](Cc1c[nH]c2ccccc12)C(=O)N[C@@H](C(=O)N[C@@H](Cc1c[nH]c2ccccc12)C(=O)N[C@@H](C(=O)N[C@@H](Cc1c[nH]c2ccccc12)C(=O)NCCO)C(C)C)C(C)C)C(C)C)C(C)C` [compound 7408] (For-VGA[dL]A[dL]V[dL]W[dV]W[dV]W[dV]W-NHCH2CH2OH), for which the “H+/Na+ transport activity normalized against the value of 1 (1.00)” value in series [1] worked out at 1.06. The same compound had a cell viability/% in series [2] of 19.4%. Also, the antibacterial activity entry in series [3] is on record as “-”.
For `CNC(=O)C[C@@H](NC(=O)[C@@H](NC(=O)[C@H](NC(=O)[C@H](C)NC(=O)[C@H](NC(=O)[C@H](C)NC(=O)CNC(=O)[C@@H](NC=O)C(C)C)C(C)C)C(C)C)C(C)C)C(=O)N[C@@H](Cc1c[nH]c2ccccc12)C(=O)N[C@H](CC(C)C)C(=O)N[C@@H](Cc1c[nH]c2ccccc12)C(=O)N[C@H](CC(C)C)C(=O)N[C@@H](Cc1c[nH]c2ccccc12)C(=O)N[C@H](CC(C)C)C(=O)N[C@@H](Cc1c[nH]c2ccccc12)C(=O)NCCO` [compound 7437] (For-VGA[dV]A[dV]V[dD](NHMe)W[dL]W[dL]W[dL]W-NHCH2CH2OH) the same measures were 1.11, 100.0% and “-”.
For `CNC(=O)C[C@@H](NC(=O)[C@H](Cc1c[nH]c2ccccc12)NC(=O)[C@H](NC(=O)[C@H](Cc1c[nH]c2ccccc12)NC(=O)[C@H](NC(=O)[C@H](Cc1c[nH]c2ccccc12)NC(=O)[C@H](NC(=O)[C@@H](NC(=O)[C@@H](CC(C)C)NC(=O)[C@H](C)NC(=O)[C@H](NC(=O)[C@H](C)NC(=O)CNC(=O)[C@@H](NC=O)C(C)C)C(C)C)C(C)C)C(C)C)C(C)C)C(C)C)C(=O)N[C@@H](Cc1c[nH]c2ccccc12)C(=O)NCCO` [compound 7479] (For-VGA[dV]A[dL]V[dV]W[dV]W[dV]W[dD](NHMe)W-NHCH2CH2OH) the same measures were 1.00, 100.0% and “-”.
In the same order, the values of `CC(C)C[C@@H](NC(=O)[C@H](C)NC(=O)CNC(=O)[C@@H](NC=O)C(C)C)C(=O)N[C@@H](C)C(=O)N[C@H](CC(C)C)C(=O)N[C@H](C(=O)N[C@H](CC(C)C)C(=O)N[C@@H](Cc1c[nH]c2ccccc12)C(=O)N[C@@H](C(=O)N[C@@H](Cc1c[nH]c2ccccc12)C(=O)N[C@H](CC(C)C)C(=O)N[C@@H](Cc1c[nH]c2ccccc12)C(=O)N[C@@H](C(=O)N[C@@H](Cc1c[nH]c2ccccc12)C(=O)NCCO)C(C)C)[C@H](C)O)C(C)C` [compound 7480] (For-VGA[dL]A[dL]V[dL]W[dT]W[dL]W[dV]W-NHCH2CH2OH) are 1.01, 100.0% and “-”.
As to `CC(C)C[C@@H](NC(=O)[C@H](C)NC(=O)CNC(=O)[C@@H](NC=O)C(C)C)C(=O)N[C@@H](C)C(=O)N[C@@H](C(=O)N[C@H](C(=O)N[C@@H](C(=O)N[C@@H](Cc1c[nH]c2ccccc12)C(=O)N[C@@H](C(=O)N[C@@H](Cc1c[nH]c2ccccc12)C(=O)N[C@@H](C(=O)N[C@@H](Cc1c[nH]c2ccccc12)C(=O)N[C@@H](C(=O)N[C@@H](Cc1c[nH]c2ccccc12)C(=O)NCCO)C(C)C)C(C)C)C(C)C)C(C)C)C(C)C)C(C)C` [compound 7516] (For-VGA[dL]A[dV]V[dV]W[dV]W[dV]W[dV]W-NHCH2CH2OH), the “H+/Na+ transport activity normalized against the value of 1 (1.00)” value in series [1] came out at 1.03. In addition, the cell viability/% in series [2] is given as 100.0%. Moreover, the antibacterial activity result in series [3] is “+”.
